Test systems include M14; SK-MEL-5; ACHN; TK-10; NCI-H226; MOLT-4; HCT-15; SK-OV-3; U-251; NCI-H522; OVCAR-8; NCI-H23; CAKI-1; OVCAR-5; A498.
Holding throughout (assay): DTP human tumour cell line panel, 48 h

Structures are written as SMILES.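 Growth conditions: 96-well plates. Treatment: test compound, 48 hours, 5 concentrations. Analysis: linear interpolation between bracketing concentrations; unreached endpoints set to highest concentration. At the GI50, growth is halved.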 Calls of active or inactive are those of the source. Cut-off read from the data, not from the text of the source: active = GI50 up to about 1.1 µM and inactive = higher.

Results on 15 compounds are retold here after ChEMBL document CHEMBL1201862, “PubChem BioAssay data set” (2004).

For orientation: GI50 means the concentration giving 50% growth inhibition.

With `Oc1cccc2c1NC1=C(CCC/C1=C\c1ccccc1)C2`, the GI50 with M14 was 33.5 µM (inactive); with SK-MEL-5 it was > 100 µM (inactive); in the assay on ACHN, 53.5 µM (inactive); with TK-10 it was > 100 µM (inactive); in the assay with NCI-H226 it was > 100 µM (inactive); with MOLT-4, 34.8 µM (inactive). Besides, the GI50 was 43.4 µM in the assay with HCT-15; > 100 µM (inactive) in the assay on SK-OV-3; 69 µM (inactive) in the assay on U-251; 11 µM (inactive) in the assay on NCI-H522; > 100 µM (inactive) with OVCAR-8; 58.2 µM (inactive) with NCI-H23.
For the compound `COc1ccc(/C=C/C(C(=O)O)C(=O)O)cc1`, the GI50 in the assay with M14 is 75.7 µM (inactive); in the assay with SK-MEL-5, 76.6 µM (inactive); with ACHN, 92 µM (inactive); with TK-10, > 100 µM (inactive); in the assay on NCI-H226, > 100 µM (inactive); in the assay on CAKI-1, > 100 µM (inactive). Moreover, the GI50 in the assay on MOLT-4 was 25.8 µM (inactive); in the assay with OVCAR-5, 78.5 µM (inactive); in the assay on HCT-15, 45.6 µM; in the assay on SK-OV-3, > 100 µM (inactive); with U-251 it was > 100 µM (inactive); with NCI-H522 it was 30.8 µM (inactive). For the same compound, the GI50 in the assay on OVCAR-8 and in the assay on NCI-H23 was > 100 µM (inactive) throughout.
Regarding `C[C@@H](CO)OCOCc1ccccc1`, the GI50 was > 100 µM (inactive) with M14; > 100 µM (inactive) in the assay on SK-MEL-5; > 100 µM (inactive) in the assay with A498; > 100 µM (inactive) in the assay on CAKI-1; > 100 µM (inactive) in the assay on MOLT-4; greater than 100 µM in the assay on HCT-15. The GI50 in the assay on SK-OV-3, in the assay with U-251, in the assay with NCI-H522 and in the assay on NCI-H23 was > 100 µM (inactive) each time.
For `NNC(=O)N/N=C1\CNC(=O)C(=O)C1c1nc2ccccc2s1` (stereo not drawn), the GI50 in the assay with M14, in the assay with SK-MEL-5, in the assay on A498, with ACHN, in the assay with TK-10 and in the assay on NCI-H226 was > 100 µM (inactive) in each case. Also, the GI50 was > 100 µM (inactive) with CAKI-1; > 100 µM (inactive) with OVCAR-5; greater than 100 µM in the assay on HCT-15; > 100 µM (inactive) in the assay on SK-OV-3; > 100 µM (inactive) in the assay on U-251; > 100 µM (inactive) with NCI-H522. Also, the GI50 in the assay on OVCAR-8 and in the assay on NCI-H23 was > 100 µM (inactive) throughout.
Consider `Cc1ccc(NC(=O)CC(=O)n2nc(-c3ccccc3)c(/N=N/c3ccc(Cl)cc3)c2-c2ccccc2)cc1`, for which the GI50 in the assay with M14 was > 100 µM (inactive); in the assay with SK-MEL-5, > 100 µM (inactive); in the assay with A498, > 100 µM (inactive); with ACHN, 27.6 µM (inactive); in the assay with TK-10, 22.3 µM (inactive); in the assay with NCI-H226, > 100 µM (inactive). The GI50 was > 100 µM (inactive) with CAKI-1; 83.9 µM (inactive) with MOLT-4; > 100 µM (inactive) in the assay with OVCAR-5; 88.7 µM in the assay with HCT-15; 27.5 µM (inactive) in the assay on SK-OV-3; 26 µM (inactive) in the assay on OVCAR-8. The GI50 in the assay with NCI-H23 is 58.1 µM (inactive).
With `CC(=O)N1C(=O)C(=O)c2cc(Cl)ccc21`, the GI50 with M14, in the assay with SK-MEL-5, in the assay on A498, in the assay on ACHN, in the assay with TK-10 and in the assay on NCI-H226 was > 100 µM (inactive) throughout. Besides, the GI50 in the assay on MOLT-4 was > 100 µM (inactive); in the assay with OVCAR-5, > 100 µM (inactive); with HCT-15 it was greater than 100 µM; in the assay with SK-OV-3, > 100 µM (inactive); in the assay with U-251, > 100 µM (inactive); in the assay with OVCAR-8, > 100 µM (inactive). Besides, the GI50 with NCI-H23 was > 100 µM (inactive).
As to `Cc1ccc(S(=O)(=O)OC(C=O)C(O)C(O)COC(c2ccccc2)(c2ccccc2)c2ccccc2)cc1` (stereo not drawn), the GI50 is 16.1 µM (inactive) with M14; 15.4 µM (inactive) in the assay on SK-MEL-5; 18 µM (inactive) in the assay with A498; 15.3 µM (inactive) in the assay with ACHN; 14.9 µM (inactive) with NCI-H226; 19.8 µM (inactive) with CAKI-1. In addition, the GI50 is 6.08 µM (inactive) with MOLT-4; 20.1 µM (inactive) in the assay on OVCAR-5; 14.1 µM in the assay with HCT-15; 15 µM (inactive) in the assay with SK-OV-3; 14.4 µM (inactive) with U-251; 13.1 µM (inactive) in the assay on NCI-H522. Moreover, the GI50 in the assay on OVCAR-8 was 13.6 µM (inactive).
As to `C[Si]12OCCCN(CCO1)CCO2`, the GI50 in the assay with SK-MEL-5, in the assay on A498, in the assay with ACHN, in the assay on TK-10, in the assay with CAKI-1 and with MOLT-4 was > 100 µM (inactive) each time. Also, the GI50 in the assay with OVCAR-5, with SK-OV-3, in the assay with U-251, in the assay on NCI-H522, in the assay with OVCAR-8 and with NCI-H23 was > 100 µM (inactive) each time.
Turning to `N#Cc1ccc(Nc2cnc3ccc(N)cc3n2)cc1`, the GI50 in the assay on M14, in the assay on SK-MEL-5, in the assay with ACHN, in the assay with TK-10, with NCI-H226 and in the assay on CAKI-1 was > 100 µM (inactive) each time. Also, the GI50 in the assay on MOLT-4 was > 100 µM (inactive); in the assay on OVCAR-5, > 100 µM (inactive); with HCT-15 it was greater than 100 µM; in the assay on SK-OV-3, > 100 µM (inactive); in the assay on U-251 it was > 100 µM (inactive); with NCI-H522 it was > 100 µM (inactive). In addition, the GI50 with OVCAR-8 and with NCI-H23 was > 100 µM (inactive) in each case.
Regarding `O=C(Nc1cccc(Cl)c1)c1cc2cc(/N=N/c3ccc(Br)cc3)ccc2oc1=O`, the GI50 was 22.3 µM (inactive) in the assay with M14; 36.8 µM (inactive) with SK-MEL-5; > 100 µM (inactive) in the assay on A498; 23.7 µM (inactive) in the assay on ACHN; 51.1 µM (inactive) in the assay with TK-10; 23.2 µM (inactive) with CAKI-1. For the same compound, the GI50 was 14.9 µM (inactive) in the assay on MOLT-4; 31 µM (inactive) in the assay with OVCAR-5; 10.2 µM with HCT-15; 51.2 µM (inactive) in the assay on SK-OV-3; 26.7 µM (inactive) in the assay with U-251; 49.4 µM (inactive) in the assay on NCI-H522. In addition, the GI50 with OVCAR-8 is 58.7 µM (inactive); with NCI-H23, 22.6 µM (inactive).
With `COc1c(OC)c(N)c2cc(C)c(=O)c(C)cc2c1N`, the GI50 with M14, in the assay on SK-MEL-5, with A498, in the assay on ACHN, with TK-10 and with CAKI-1 was > 100 µM (inactive) throughout. Further, the GI50 in the assay with MOLT-4 is > 100 µM (inactive); in the assay with OVCAR-5 it was > 100 µM (inactive); in the assay with HCT-15 it was 99.8 µM; in the assay on SK-OV-3 it was > 100 µM (inactive); with U-251, > 100 µM (inactive); with NCI-H522 it was 96.8 µM (inactive). Also, the GI50 in the assay with OVCAR-8 and in the assay with NCI-H23 was > 100 µM (inactive) each time.
With `OC1CN(OC/C=C/c2ccccc2)CC(O)C1O` (stereo not drawn), the GI50 in the assay on M14, in the assay on SK-MEL-5, with A498, with ACHN, in the assay with TK-10 and with NCI-H226 was > 100 µM (inactive) in each case. The GI50 was > 100 µM (inactive) with CAKI-1; > 100 µM (inactive) in the assay on MOLT-4; > 100 µM (inactive) in the assay with OVCAR-5; greater than 100 µM with HCT-15; > 100 µM (inactive) with SK-OV-3; > 100 µM (inactive) in the assay with U-251. Moreover, the GI50 in the assay with OVCAR-8 and with NCI-H23 was > 100 µM (inactive) each time.
`NC(CCSCCF)C(=O)O` (stereo not drawn): the GI50 with M14, in the assay with A498, with ACHN, in the assay on TK-10, in the assay with NCI-H226 and in the assay with CAKI-1 was > 100 µM (inactive) throughout. Also, the GI50 with MOLT-4 was > 100 µM (inactive); in the assay on OVCAR-5 it was > 100 µM (inactive); in the assay with HCT-15, greater than 100 µM; with SK-OV-3, > 100 µM (inactive); in the assay on U-251, > 100 µM (inactive); in the assay with NCI-H522 it was > 100 µM (inactive). Further, the GI50 in the assay with NCI-H23 is > 100 µM (inactive).
With `C=C1CC(CCCl)(c2ccccc2)OC1=O` (stereo not drawn), the GI50 in the assay with M14 was 19.5 µM (inactive); with SK-MEL-5, > 100 µM (inactive); in the assay with A498, > 100 µM (inactive); with ACHN it was 32.5 µM (inactive); with TK-10, > 47.5 µM (inactive); in the assay on NCI-H226, > 100 µM (inactive). Besides, the GI50 in the assay on MOLT-4 was 21.1 µM (inactive); with OVCAR-5, > 100 µM (inactive); with HCT-15 it was 19.7 µM; in the assay with SK-OV-3, > 100 µM (inactive); in the assay with U-251, > 59.3 µM (inactive); in the assay on NCI-H522 it was 18.5 µM (inactive). Moreover, the figures for the GI50 in the assay on OVCAR-8 and with NCI-H23 were 41.1 µM (inactive) and > 100 µM (inactive), respectively.
Take `CCOC(=O)/C(=C/c1ccccc1Br)P(=O)(OCC)OCC`: the GI50 with M14 is 1.54 µM (inactive); with SK-MEL-5 it was 1.63 µM (inactive); in the assay on A498, 3.19 µM (inactive); in the assay on ACHN, 2.57 µM (inactive); with TK-10, 3.23 µM (inactive); with NCI-H226, 3.07 µM (inactive). Moreover, the GI50 in the assay with CAKI-1 is 2.09 µM (inactive); in the assay on MOLT-4, 2.28 µM (inactive); in the assay with OVCAR-5 it was 2.53 µM (inactive); in the assay with HCT-15, 1.78 µM; with U-251 it was 1.59 µM (inactive); in the assay with NCI-H522, 0.927 µM (active). For the same compound, the GI50 in the assay with OVCAR-8 was 1.91 µM (inactive); in the assay with NCI-H23, 1.73 µM (inactive).
